MIC data for one compound are collected here from publication PMC6511943, “Structure-Guided Drug Design of 6-Substituted Adenosine Analogues as Potent Inhibitors of Mycobacterium tuberculosis Adenosine Kinase” (Journal of Medicinal Chemistry, 2019).

This experiment concerns Mtb H37Rv-resistant mutants (adoK D251N, Q172P, G262S). Format: cell-based, Mycobacterium tuberculosis.

Compound `Nc1ncnc2c1c(I)cn2[C@@H]1O[C@H](CO)[C@@H](O)[C@H]1O` [Compound 2, Iodotubercidin] yielded a minimal inhibitory concentration (MIC) above 100 µM.

The term MIC denotes the lowest concentration that inhibits growth of the organism. Higher therefore signals a less susceptible organism.
